# In patent US7435820B2, “Substituted tetrahydro-1H-pyrazolo [3,4-c]pyridines compositions comprising them, and use” (Aventis Pharma S.A., priority 2003, dated 2008):
# Read-outs that look alike come from different tables or passages of the source.
# What was measured:
# [1] = target: T1, human Tie2 (Homo sapiens, UniProt Q02763); test: Tie2 kinase inhibition: phosphorylation of GST-PLC (SH2-SH3 fragments) by GST-Tie2, 33P-ATP flashplate; assay type: biochemical; details: for Tie2 % Inhib at 10 μM (FRX) Assay 1: Assay 1, 10 µM; for Tie2 % Inhib at 10 μM (FRX) Assay 2: Assay 2, 10 µM
# T1 construct: human Tie2 corresponding to amino acids 776-1124 of the intracellular domain was generated by PCR; made in house; host or cells: baculovirus expression system (vector pFastBacGT)
# Protocol: The coding sequence of human Tie2 corresponding to amino acids 776-1124 of the intracellular domain was generated by PCR using the cDNA isolated from human placenta as model. This sequence was introduced into a baculovirus expression vector pFastBacGT in the form of a GST fusion protein.
# The inhibitory effect of the molecules is determined in an assay for phosphorylation of PLC by Tie2 in the presence of GST-Tie2 purified to approximately 80% homogeneity. The substrate is made up of the SH2-SH3 fragments of PLC, the latter being expressed in the form of a GST fusion protein.
# The kinase activity of Tie2 is measured in a 20 mM MOPS buffer, pH 7.2, containing 10 mM MgCl2, 10 mM MnCl2, 1 mM DTT and 10 mM of glycerophosphate. A reaction mixture made up of 70 μl of kinase buffer containing 100 ng of GST-Tie2 enzyme per well is placed in a flashplate 96-well plate kept on ice. 10 μl of the molecule to be tested, diluted in DMSO, at a concentration of at most 10% are then added. For a given concentration, each measurement is carried out in quadruplicate. The reaction is initiated by adding 20 μl of solution containing 2 μg of GST-PLC, 2 μM of cold ATP and 1 μCi of ^33P[ATP]. After incubation for 1 hour at 37° C., the reaction is stopped by adding 1 volume (100 μl) of 200 mM EDTA. After removal of the incubation buffer, the wells are washed three times with 300 μl of PBS. The radioactivity is measured on a Wallac MicroBeta 1450.
# The inhibition of the Tie2 activity is calculated and expressed as percentage inhibition with respect to the control activity determined in the absence of compound.
# [2] = target: T2, human KDR enzyme (Homo sapiens, UniProt P35968); test: KDR kinase inhibition: phosphorylation of PLCγ SH2-SH3 substrate by KDR enzyme, 33P-ATP scintillation plate; assay type: biochemical
# T2 construct: The cytoplasmic domain of the human KDR enzyme was cloned in GST fusion form; GST; made in house; host or cells: SF21 insect cells (baculovirus, pFastBac)
# Protocol: The inhibitory effect of the compounds is determined in an assay for phosphorylation of substrate by the KDR enzyme in vitro using a scintillation technique (96-well plate, NEN).
# The cytoplasmic domain of the human KDR enzyme was cloned in GST fusion form into the baculovirus expression vector pFastBac. The protein was expressed in SF21 cells and purified to approximately 60% homogeneity. The KDR kinase activity is measured in 20 mM MOPS, 10 mM MgCl2, 10 mM MnCl2, 1 mM DTT, 2.5 mM EGTA, 10 mM b-glycerophosphate, pH=7.2, in the presence of 10 mM MgCl2, 100 μM Na3VO4 and 1 mM NaF. 10 μl of the compound are added to 70 μl of kinase buffer containing 100 ng of KDR enzyme at 4° C. The reaction is initiated by adding 20 μl of solution containing 2 μg of substrate (SH2-SH3 fragment of PLCγ expressed in the form of an GST fusion protein), 2 μCi γ ^33P[ATP] and 2 μM cold ATP. After incubation for 1 hour at 37° C., the reaction is stopped by adding 1 volume (100 μl) of 200 mM EDTA. The incubation buffer is removed and the wells are washed three times with 300 μl of PBS. The radioactivity is measured in each well using a Top Count NXT (Packard) radioactivity counter.
# The background noise is determined by measuring the radioactivity in four different wells containing the radioactive ATP and the substrate alone.
# A total activity control is measured in four different wells containing all the reagents (γ^33P-[ATP], KDR and PLC-γ substrate) but in the absence of compound.
# The inhibition of the KDR activity with the compound of the invention is expressed as percentage inhibition of the control activity determined in the absence of compound.
# The compound SU5614 (Calbiochem) (1 μM) is included in each plate as inhibition control.
# [3] = Assay 1, read-out: Tie2 % Inhib at 10 μM (FRX) Assay 1
# [4] = Assay 2, read-out: Tie2 % Inhib at 10 μM (FRX) Assay 2
# [5] = Assay 1, read-out: KDR % Inhib at 10 μM Assay 1
# [6] = Assay 2, read-out: KDR % Inhib at 10 μM Assay 2
# T2 sequence (P35968 786-1356 limits assumed): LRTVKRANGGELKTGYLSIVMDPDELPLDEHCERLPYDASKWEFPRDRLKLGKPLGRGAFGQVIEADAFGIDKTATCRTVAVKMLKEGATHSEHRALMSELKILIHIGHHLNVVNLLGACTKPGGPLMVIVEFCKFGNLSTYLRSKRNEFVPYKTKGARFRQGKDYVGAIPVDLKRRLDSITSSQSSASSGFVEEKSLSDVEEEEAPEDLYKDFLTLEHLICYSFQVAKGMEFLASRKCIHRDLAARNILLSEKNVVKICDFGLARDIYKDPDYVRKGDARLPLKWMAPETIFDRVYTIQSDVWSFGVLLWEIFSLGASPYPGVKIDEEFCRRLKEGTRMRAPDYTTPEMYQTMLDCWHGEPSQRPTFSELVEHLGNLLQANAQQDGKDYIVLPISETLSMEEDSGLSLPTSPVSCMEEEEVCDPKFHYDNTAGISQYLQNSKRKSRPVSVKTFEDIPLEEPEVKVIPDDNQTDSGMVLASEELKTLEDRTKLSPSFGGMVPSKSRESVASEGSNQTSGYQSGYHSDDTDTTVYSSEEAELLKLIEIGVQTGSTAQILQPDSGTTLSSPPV
# T1 sequence (Q02763 776-1124): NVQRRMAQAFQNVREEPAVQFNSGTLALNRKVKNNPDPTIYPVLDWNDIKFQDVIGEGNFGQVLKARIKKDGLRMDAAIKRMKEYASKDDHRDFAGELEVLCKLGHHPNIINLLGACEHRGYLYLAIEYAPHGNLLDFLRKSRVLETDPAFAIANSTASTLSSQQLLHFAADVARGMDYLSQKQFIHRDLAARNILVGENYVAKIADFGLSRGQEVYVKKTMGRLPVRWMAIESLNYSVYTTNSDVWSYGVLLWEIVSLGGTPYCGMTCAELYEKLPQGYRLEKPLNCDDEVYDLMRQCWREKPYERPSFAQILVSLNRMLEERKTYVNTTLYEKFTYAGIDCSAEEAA
SMILES,inhibition at 10 µM ([1]; read-out: Tie2 % Inhib. 10 μM),inhibition at 10 µM ([2]; read-out: KDR % Inhib. 10 μM),other results
Cc1cc2nc(-c3[nH]nc4c3CCN(C(=O)CC(C)C)C4)[nH]c2cc1C [Chemistry 49],84.8%,12.2%,
C=CCC(=O)N1CCc2c(n[nH]c2-c2nc3cc(C)c(C)cc3[nH]2)C1 [Chemistry 51],72.9%,38.7%,
CCCC(=O)N1CCc2c(n[nH]c2-c2nc3cc(C)c(C)cc3[nH]2)C1 [Chemistry 52],89.3%,29.4%,
Cc1cc2nc(-c3[nH]nc4c3CCN(C(=O)C(C)(C)C)C4)[nH]c2cc1C [Chemistry 54],81.3%,11.2%,
Cc1cc2nc(-c3[nH]nc4c3CCN(C(=O)CN(C)C)C4)[nH]c2cc1C [Chemistry 55],65.4%,15.9%,
CCCCC(=O)N1CCc2c(n[nH]c2-c2nc3cc(C)c(C)cc3[nH]2)C1 [Chemistry 56],92.5%,46.6%,
CCCCNC(=O)N1CCc2c(n[nH]c2-c2nc3cc(C)c(C)cc3[nH]2)C1 [Chemistry 64],38.5%,18%,
Cc1cc2nc(-c3[nH]nc4c3CCN(C(=O)Nc3cccs3)C4)[nH]c2cc1C [Chemistry 65],85.9%,63.3%,
O=C(c1cccnc1)N1CCc2c(n[nH]c2-c2nc3ccccc3[nH]2)C1 [Chemistry 69],59.3%,18.6%,
Clc1cccc(CN2CCc3c(n[nH]c3-c3nc4ccccc4[nH]3)C2)c1 [Chemistry 70],65.5%,92.1%,
Cc1cc2nc(-c3[nH]nc4c3CCN(C(=O)c3ccccc3Nc3cccc(Cl)c3C)C4)[nH]c2cc1C [Example P-31375-112-10],,,"inhibition at 10 µM [1, 3]: 90.6%; inhibition at 10 µM [1, 4]: 87.9%; inhibition at 10 µM [2, 5]: 42.3%; inhibition at 10 µM [2, 6]: 28.7%"
Cc1cc2nc(-c3[nH]nc4c3CCN(C(=O)c3ccccc3Nc3ccccc3)C4)[nH]c2cc1C [Example P-31378-112-1],,,"inhibition at 10 µM [1, 3]: 83.1%; inhibition at 10 µM [1, 4]: 88.1%; inhibition at 10 µM [2, 5]: 96.5%; inhibition at 10 µM [2, 6]: 96.7%"
Cc1cc2nc(-c3[nH]nc4c3CCN(C(=O)c3ccccc3Nc3ccccc3)C4)[nH]c2cc1C [Example P-31378-112-2],,,Tie2 % Inhib at 10 μM (FRX) Assay 1 [1]: 92.6%; Tie2 % Inhib at 10 μM (FRX) Assay 2 [1]: 92.6%; KDR % Inhib at 10 μM Assay 1 [2]: 98.1%; KDR % Inhib at 10 μM Assay 2 [2]: 97.4%
Cc1cc2nc(-c3[nH]nc4c3CCN(C(=O)c3ccccc3Nc3cccc(C(F)(F)F)c3)C4)[nH]c2cc1C [Example P-31378-112-3],,,Tie2 % Inhib at 10 μM (FRX) Assay 1 [1]: 78.7%; Tie2 % Inhib at 10 μM (FRX) Assay 2 [1]: 79.1%; KDR % Inhib at 10 μM Assay 1 [2]: 59.0%; KDR % Inhib at 10 μM Assay 2 [2]: 56.5%
Cc1cc2nc(-c3[nH]nc4c3CCN(C(=O)c3ccccc3Nc3cccc(C(F)(F)F)c3)C4)[nH]c2cc1C [Example P-31378-112-4],,,"inhibition at 10 µM [1, 3]: 83.1%; inhibition at 10 µM [1, 4]: 87.2%; inhibition at 10 µM [2, 5]: 56.2%; inhibition at 10 µM [2, 6]: 50.1%"
Cc1cc2nc(-c3[nH]nc4c3CCN(C(=O)c3ccccc3Oc3ccccc3)C4)[nH]c2cc1C [Example P-31378-112-5],,,"inhibition at 10 µM [1, 3]: 87.1%; inhibition at 10 µM [1, 4]: 86.4%; inhibition at 10 µM [2, 5]: 94.7%; inhibition at 10 µM [2, 6]: 95.4%"
Cc1cc2nc(-c3[nH]nc4c3CCN(C(=O)c3ccccc3Cc3ccccc3)C4)[nH]c2cc1C [Example P-31378-112-6],,,"inhibition at 10 µM [1, 3]: 92.7%; inhibition at 10 µM [1, 4]: 93.8%; inhibition at 10 µM [2, 5]: 71.4%; inhibition at 10 µM [2, 6]: 68%"
Cc1cc2nc(-c3[nH]nc4c3CCN(C(=O)c3ccccc3CCc3ccccc3)C4)[nH]c2cc1C [Example P-31378-112-7],,,"inhibition at 10 µM [1, 3]: 92.7%; inhibition at 10 µM [1, 4]: 92%; inhibition at 10 µM [2, 5]: 68.6%; inhibition at 10 µM [2, 6]: 64.3%"
Cc1cc2nc(-c3[nH]nc4c3CCN(C(=O)c3ccccc3NCc3ccccc3)C4)[nH]c2cc1C [Example P-31378-112-8],,,"inhibition at 10 µM [1, 3]: 87.8%; inhibition at 10 µM [1, 4]: 93.3%; inhibition at 10 µM [2, 5]: 86.8%; inhibition at 10 µM [2, 6]: 89%"
Cc1cc2nc(-c3[nH]nc4c3CCN(C(=O)c3ccccc3OCc3ccccc3)C4)[nH]c2cc1C [Example P-31378-112-9],,,"inhibition at 10 µM [1, 3]: 82.6%; inhibition at 10 µM [1, 4]: 85.9%; inhibition at 10 µM [2, 5]: 53.2%; inhibition at 10 µM [2, 6]: 45.1%"
Cc1cc2c(cc1C)NC(c1[nH]nc3c1CCN(C(=O)c1ccc(C)c([N+](=O)[O-])c1)C3)N2 [Example P-31378-112-14],,,"inhibition at 10 µM [1, 3]: 69.7%; inhibition at 10 µM [1, 4]: 73.8%; inhibition at 10 µM [2, 5]: 19.5%; inhibition at 10 µM [2, 6]: 13%"

# Further lines, with some results ahead:
inhibition at 10 µM ([1]; read-out: Tie2 % Inhib. 10 μM),inhibition at 10 µM ([2]; read-out: KDR % Inhib. 10 μM),SMILES,other results
94.1%,33.4%,Cc1cc2nc(-c3[nH]nc4c3CCN(C(=O)C3CC3)C4)[nH]c2cc1C [Chemistry 45],
96.7%,73%,Cc1cc2nc(-c3[nH]nc4c3CCN(C(=O)c3ccccc3Cl)C4)[nH]c2cc1C [Chemistry 46],
87.7%,78.5%,Cc1cc2nc(-c3[nH]nc4c3CCN(C(=O)c3cccc(Cl)c3)C4)[nH]c2cc1C [Chemistry 47],
83.8%,42%,Cc1cc2nc(-c3[nH]nc4c3CCN(C(=O)c3ccc(Cl)cc3)C4)[nH]c2cc1C [Chemistry 48],
82.4%,74.8%,Cc1cc2nc(-c3[nH]nc4c3CCN(C(=O)CCc3ccccc3)C4)[nH]c2cc1C [Chemistry 50],
92.7%,74.5%,Cc1cc2nc(-c3[nH]nc4c3CCN(C(=O)c3ccco3)C4)[nH]c2cc1C [Chemistry 53],
94.6%,75.2%,Cc1cc2nc(-c3[nH]nc4c3CCN(C(=O)c3cccs3)C4)[nH]c2cc1C [Chemistry 57],
82.3%,27.9%,Cc1cc2nc(-c3[nH]nc4c3CCN(C(=O)c3ccc(S(C)(=O)=O)cc3)C4)[nH]c2cc1C [Chemistry 58],
33.2%,17.6%,Cc1cc2nc(-c3[nH]nc4c3CCN(C(=O)Nc3ccccc3)C4)[nH]c2cc1C [Chemistry 59],
64.8%,33.5%,Cc1cc2nc(-c3[nH]nc4c3CCN(C(=O)NCc3ccccc3)C4)[nH]c2cc1C [Chemistry 60],
3.75%,12.7%,Cc1cc2nc(-c3[nH]nc4c3CCN(C(=O)Nc3ccccc3Cl)C4)[nH]c2cc1C [Chemistry 61],
21%,12.8%,Cc1cc2nc(-c3[nH]nc4c3CCN(C(=O)Nc3cccc(Cl)c3)C4)[nH]c2cc1C [Chemistry 62],
23.8%,-0.3%,Cc1cc2nc(-c3[nH]nc4c3CCN(C(=O)Nc3ccc(Cl)cc3)C4)[nH]c2cc1C [Chemistry 63],
18.1%,8.1%,COc1ccccc1NC(=O)N1CCc2c(n[nH]c2-c2nc3cc(C)c(C)cc3[nH]2)C1 [Chemistry 67],
19.1%,19.5%,Cc1cc2nc(-c3[nH]nc4c3CCN(C(=O)Nc3ccccc3C)C4)[nH]c2cc1C [Chemistry 68],
